In ChEMBL document CHEMBL1147878, “Synthesis and in vitro antimicrobial activity of new 2-[p-substituted-benzyl]-5-[substituted-carbonylamino]benzoxazoles” (2007):
Converted amounts (≈) assume the structure as drawn.

Columns and labels:
Type in all cases: functional
[1] = test system: Nakaseomyces glabratus; assay: Antifungal activity against Candida glabrata after 48 hrs by serial dilution method
[2] = test system: Candida albicans; assay: Antifungal activity against Candida albicans after 48 hrs by serial dilution method
[3] = test system: Pseudomonas aeruginosa; assay: Antibacterial activity against Pseudomonas aeruginosa ATCC 10145 after 24 hrs by serial dilution method
[4] = test system: Pichia kudriavzevii; assay: Antifungal activity against Candida krusei ATCC 6258 after 48 hrs by serial dilution method; details: ATCC 6258, 48 h
[5] = test system: Escherichia coli; assay: Antibacterial activity against Escherichia coli ATCC 23556 after 24 hrs by serial dilution method
[6] = test system: Bacillus subtilis; assay: Antibacterial activity against Bacillus subtilis ATCC 6633 after 24 hrs by serial dilution method
[7] = test system: Staphylococcus aureus; assay: Antibacterial activity against Staphylococcus aureus ATCC 25923 after 24 hrs by serial dilution method

| Molecule | MIC [1] [µg/mL] | MIC [2] [µg/mL] | MIC ([3]; ATCC 10145, 24 h) [µg/mL] | MIC [4] [µg/mL] | MIC ([5]; ATCC 23556, 24 h) [µg/mL] | MIC ([6]; ATCC 6633, 24 h) [µg/mL] | MIC ([7]; ATCC 25923, 24 h) [µg/mL] | MIC [3] [µg/mL] | MIC [5] [µg/mL] | MIC [6] [µg/mL] | MIC [7] [µg/mL] |
| --- | --- | --- | --- | --- | --- | --- | --- | --- | --- | --- | --- |
| O=C(Cc1ccc([N+](=O)[O-])cc1)Nc1ccc2oc(Cc3ccc(Cl)cc3)nc2c1 | 25 (≈ 59.3 µM) | 12.5 (≈ 29.6 µM) | 25 (≈ 59.3 µM) | 25 (≈ 59.3 µM) | 50 (≈ 119 µM) | 50 (≈ 119 µM) | 50 (≈ 119 µM) | – | – | – | – |
| GENTAMICIN | – | – | – | – | – | – | – | 12.5 | 12.5 | 1.56 | 3.12 |
| Clc1cc(Cl)c(OCC#CI)cc1Cl [HALOPROGIN] | – | 3.12 (≈ 8.63 µM) | – | – | – | – | – | – | – | – | – |
| Cc1ccc(C(=O)Nc2ccc3oc(Cc4ccccc4)nc3c2)cc1C | 50 (≈ 140 µM) | 25 (≈ 70.1 µM) | 25 (≈ 70.1 µM) | 50 (≈ 140 µM) | 50 (≈ 140 µM) | 50 (≈ 140 µM) | 50 (≈ 140 µM) | – | – | – | – |
| CC(C)(C)c1ccc(C(=O)Nc2ccc3oc(Cc4ccc(Cl)cc4)nc3c2)cc1 | 50 (≈ 119 µM) | 50 (≈ 119 µM) | 50 (≈ 119 µM) | 50 (≈ 119 µM) | 50 (≈ 119 µM) | 50 (≈ 119 µM) | 25 (≈ 59.7 µM) | – | – | – | – |
| O=C(Cc1ccc(Br)cc1)Nc1ccc2oc(Cc3ccccc3)nc2c1 | 3.12 (≈ 7.41 µM) | 25 (≈ 59.3 µM) | 25 (≈ 59.3 µM) | 12.5 (≈ 29.7 µM) | 25 (≈ 59.3 µM) | 25 (≈ 59.3 µM) | 25 (≈ 59.3 µM) | – | – | – | – |
| Cc1ccc(CC(=O)Nc2ccc3oc(Cc4ccc(Cl)cc4)nc3c2)cc1 | 12.5 (≈ 32 µM) | 12.5 (≈ 32 µM) | 25 (≈ 64 µM) | 12.5 (≈ 32 µM) | 50 (≈ 128 µM) | 25 (≈ 64 µM) | 100 (≈ 256 µM) | – | – | – | – |
| O=C(Cc1ccc(F)cc1)Nc1ccc2oc(Cc3ccccc3)nc2c1 | 12.5 (≈ 34.7 µM) | 50 (≈ 139 µM) | 25 (≈ 69.4 µM) | 12.5 (≈ 34.7 µM) | 25 (≈ 69.4 µM) | 25 (≈ 69.4 µM) | 50 (≈ 139 µM) | – | – | – | – |
| O=C(Nc1ccc2oc(Cc3ccc(Cl)cc3)nc2c1)c1ccc(F)cc1 | 12.5 (≈ 32.8 µM) | 12.5 (≈ 32.8 µM) | 50 (≈ 131 µM) | 12.5 (≈ 32.8 µM) | 25 (≈ 65.7 µM) | 25 (≈ 65.7 µM) | 50 (≈ 131 µM) | – | – | – | – |
| CN[C@@H]1[C@H](O[C@H]2[C@H](O[C@H]3[C@H](O)[C@@H](O)[C@H](N=C(N)N)[C@@H](O)[C@@H]3N=C(N)N)O[C@@H](C)[C@]2(O)C=O)O[C@@H](CO)[C@H](O)[C@H]1O (stereo in doubt) [STREPTOMYCIN] | 13 (≈ 22.4 µM) | – | 100 (≈ 172 µM) | – | 1.56 (≈ 2.68 µM) | 50 (≈ 86 µM) | 3.12 (≈ 5.36 µM) | – | – | – | – |
| CCc1ccc(C(=O)Nc2ccc3oc(Cc4ccccc4)nc3c2)cc1 | 12.5 (≈ 35.1 µM) | 25 (≈ 70.1 µM) | 50 (≈ 140 µM) | 25 (≈ 70.1 µM) | 50 (≈ 140 µM) | 50 (≈ 140 µM) | 50 (≈ 140 µM) | – | – | – | – |
